Source: EP0026410A1, “Combinations of active ingredients, their preparation and use, as well as pharmaceutical preparations” (F. HOFFMANN-LA ROCHE & CO. Aktiengesellschaft, priority 1979, dated 1981)
In brackets after ≈: the same amount, converted by molar mass. Where two headings read alike, the source gives them in different places.

Columns and labels:
Ps. aeruginosa = assay: In vivo activity in Pseudomonas septicaemia of mice; parameters: species or system Mäusen; conditions: sc, 5 h
Text: Die in vivo Aktivitäten der erfindungsgemässen Kombinationen wurden mittels Pseudomonas-Septikämien an Mäusen getestet, wobei die Verabreichung eine Stunde, 3 Stunden -und 5 Stunden nach intraperitonealer Infektion erfolgte. Die Ergebnisse, die mit (1R)-1-(L-Norvalylamino)-ethylphosphonsäure und Nocardicin A erreicht wurden, sind in der folgenden Tabelle VI zusammengefasst.

P. mirabilis = assay: In vitro M.I.C. of Nocardicin A, peptide and mixtures against Proteus species; format: cell-based
Proteus vulgaris = assay: In vitro M.I.C. of Nocardicin A, peptide and mixtures against Proteus vulgaris; format: cell-based
P. morganii = assay: In vitro M.I.C. of Nocardicin A, peptide and mixtures against Proteus species; format: cell-based; conditions: Morganella morganii; P. morganii Stamm 501041; substance alone
Serratia marcescens = assay: In vitro M.I.C. of Nocardicin A, peptide and mixtures against Serratia marcescens; format: cell-based
Pseudomonas aeruginosa [1] = assay: Microtiter checkerboard method, M.I.C. after 18 h incubation; format: cell-based; conditions: for MIC: Pseudomonas aeruginosa
Description: Die in vitro Aktivität der erfindungsgemässen Kombinationen kann auch nach der Mikrotiter-Schachbrett-Methode gezeigt werden. Bei dieser Methode werden Filter-sterilisierte Grundlösungen von Verbindungen I und einem Nocardicin-Antibiotikum hergestellt, die 4,8mal so konzentriert sind wie die zu testenden Lösungen. Aliquote Teile des Kulturmediums (50 ul)wurden in alle 12 (1-12) x 8 (A-H) Löcher der Mikrotiter-Platte gegeben, mit Ausnahme des Loches 12H. Jeweils 50 µl der Peptid-Lösung wurden dann in jedes Loch der zwölften Reihe gegeben und 100 µl in das Loch 12H. Die peptidhaltigen Lösungen wurden dann innerhalb der Reihen A-H dadurch verdünnt, dass man jeweils 50 µl aus der Reihe 12 in die Reihe 11 übertrug, gut vermischte, und wieder jeweils 50 µl in die Reihe 10 übertrug und dieses Prozedere bis zur Reihe 2 wiederholte, so dass die Reihe 1 ausgelassen wurde. Dann wurden je 50 µl einer Lösung eines Nocardicin-Antibiotikums in jedes Loch der Reihe H gegeben und ebenfalls in der vorstehend beschriebenen Weise verdünnt innerhalb der Reihen 1-12, wobei das letzte Loch in jeder Reihe wiederum ausgelassen wurde. Nachdem die Volumina überall durch Zusatz von 50 ul Nährflüssigkeit auf 100 µl gebracht wurden, wurden jeweils 20 µl einer 1/1000 Verdünnung einer über Nacht angesetzten Kultur eines Testorganismus zugesetzt. Durch Schütteln wurde für eine gleichmässige Verteilung gesorgt, woraufhin die Platten mit Klebstreifen verschlossen wurden. Die minimalen Hemmkonzentrationen wurden als diejenigen minimalen Konzentrationen bestimmt, die nach 18-stündiger Inkubation der Kulturen eine sichtbare Trübung verhinderten. Die Ergebnisse mit (1R)-1-(L-Norvalylamino)-ethylphosphonsäure und Nocardicin D sind in der Tabelle V zusammengestellt.

Pseudomonas aeruginosa [2] = assay: In vitro M.I.C. of Nocardicin A, peptide and their mixtures against Pseudomonas aeruginosa strains; format: cell-based
P. rettgeri = assay: In vitro M.I.C. of Nocardicin A, peptide and mixtures against Proteus species; format: cell-based; conditions: Providencia rettgeri; P. rettgeri Stamm 503010; substance alone
[3] = P. mirabilis Stamm 502010, substance alone
[4] = P. mirabilis Stamm 502012, substance alone
[5] = P. mirabilis Stamm 502015, substance alone
[6] = P. mirabilis Stamm 502038, substance alone
[7] = P. vulgaris Stamm 505030, substance alone
[8] = P. vulgaris Stamm 505031, substance alone
[9] = ATCC14756, S. marcescens Stamm ATCC 14756, substance alone
[10] = S. marcescens Stamm 542007, substance alone
[11] = S. marcescens Stamm 542010, substance alone
[12] = S. marcescens Stamm 542012, substance alone
[13] = S. marcescens Stamm 542017, substance alone
[14] = NCTC2099, Stamm NCTC 2099, substance alone
[15] = NCTC2100, Stamm NCTC 2100, substance alone
[16] = Stamm NC1B 8295, substance alone
[17] = Tabelle IV, P. vulgaris (strain not named), substance alone
[18] = Tabelle IV, S. marcescens (strain not named), substance alone
[19] = Tabelle IV, Ps. aeruginosa (strain not named), substance alone

SMILES: CCC[C@H](N)C(=O)N[C@@H](C)P(=O)(O)O [(1R)-1-(L-Norvalylamino)-ethylphosphonsäure]
- ED50 (Ps. aeruginosa; read-out: CD50, Ps. aeruginosa 143724, s.c. 3 x (1, 3, 5 h after i.p. infection), substance alone): > 200 mg/kg
- ED50 (Ps. aeruginosa; read-out: CD50, Ps. aeruginosa 143811, s.c. 3 x (1, 3, 5 h after i.p. infection), substance alone): > 200 mg/kg
- ED50 (Ps. aeruginosa; read-out: CD50, Ps. aeruginosa BA, s.c. 3 x (1, 3, 5 h after i.p. infection), substance alone): > 200 mg/kg
- ED50 (Ps. aeruginosa; read-out: CD50, Ps. aeruginosa M 7801, s.c. 3 x (1, 3, 5 h after i.p. infection), substance alone): 135 mg/kg
- MIC (P. mirabilis; [3]): 22.6 µg/mL (≈ 101 µM)
- MIC (P. mirabilis; [4]): 22.6 µg/mL (≈ 101 µM)
- MIC (P. mirabilis; [5]): 22.6 µg/mL (≈ 101 µM)
- MIC (P. mirabilis; [6]): 22.6 µg/mL (≈ 101 µM)
- MIC (Proteus vulgaris; [7]): 5.7 µg/mL (≈ 25.4 µM)
- MIC (Proteus vulgaris; [8]): 8 µg/mL (≈ 35.7 µM)
- MIC (P. morganii): 64 µg/mL (≈ 285 µM)
- MIC (Serratia marcescens; [9]): 1 µg/mL (≈ 4.46 µM)
- MIC (Serratia marcescens; [10]): 1 µg/mL (≈ 4.46 µM)
- MIC (Serratia marcescens; [11]): 1 µg/mL (≈ 4.46 µM)
- MIC (Serratia marcescens; [12]): 1 µg/mL (≈ 4.46 µM)
- MIC (Serratia marcescens; [13]): 1 µg/mL (≈ 4.46 µM)
- MIC (Pseudomonas aeruginosa [1]; Stamm 511019, substance alone): > 256 µg/mL
- MIC (Pseudomonas aeruginosa [1]; Stamm 511027, substance alone): 64 µg/mL
- MIC (Pseudomonas aeruginosa [1]; Stamm 511030, substance alone): 256 µg/mL
- MIC (Pseudomonas aeruginosa [2]; [14]): 256 µg/mL (≈ 1140 µM)
- MIC (Pseudomonas aeruginosa [2]; [15]): > 256 µg/mL
- MIC (Pseudomonas aeruginosa [2]; Stamm 511004, substance alone): > 256 µg/mL
- MIC (Pseudomonas aeruginosa [2]; Stamm 511005, substance alone): 4 µg/mL (≈ 17.8 µM)
- MIC (Pseudomonas aeruginosa [2]; Stamm 511007, substance alone): > 256 µg/mL
- MIC (Pseudomonas aeruginosa [2]; Stamm 511012, substance alone): > 256 µg/mL
- MIC (Pseudomonas aeruginosa [2]; Stamm 511015, substance alone): 128 µg/mL (≈ 571 µM)
- MIC (Pseudomonas aeruginosa [2]; Stamm 511016, substance alone): 32 µg/mL (≈ 143 µM)
- MIC (Pseudomonas aeruginosa [2]; Stamm 511019, substance alone): > 256 µg/mL
- MIC (Pseudomonas aeruginosa [2]; Stamm 511026, substance alone): > 256 µg/mL
- MIC (Pseudomonas aeruginosa [2]; Stamm 511027, substance alone): 45 µg/mL (≈ 201 µM)
- MIC (Pseudomonas aeruginosa [2]; Stamm 511028, substance alone): > 256 µg/mL
- MIC (Pseudomonas aeruginosa [2]; Stamm 511029, substance alone): > 256 µg/mL
- MIC (Pseudomonas aeruginosa [2]; Stamm 511030, substance alone): 256 µg/mL (≈ 1140 µM)
- MIC (Pseudomonas aeruginosa [2]; Stamm 511032, substance alone): 256 µg/mL (≈ 1140 µM)
- MIC (Pseudomonas aeruginosa [2]; Stamm 511033, substance alone): 256 µg/mL (≈ 1140 µM)
- MIC (Pseudomonas aeruginosa [2]; Stamm 511036, substance alone): 256 µg/mL (≈ 1140 µM)
- MIC (Pseudomonas aeruginosa [2]; Stamm 511038, substance alone): 256 µg/mL (≈ 1140 µM)
- MIC (Pseudomonas aeruginosa [2]; Stamm 511041, substance alone): 256 µg/mL (≈ 1140 µM)
- MIC (Pseudomonas aeruginosa [2]; [16]): 64 µg/mL (≈ 285 µM)
- MIC (P. rettgeri): 4 µg/mL (≈ 17.8 µM)

SMILES: N[C@H](CCOc1ccc(C(=O)C(=O)N[C@H]2CN([C@@H](C(=O)O)c3ccc(O)cc3)C2=O)cc1)C(=O)O [Nocardicin D]
- M.I.C. (Pseudomonas aeruginosa [1]; Stamm 511019, substance alone): >512 µg/mL
- M.I.C. (Pseudomonas aeruginosa [1]; Stamm 511027, substance alone): 512 µg/mL
- M.I.C. (Pseudomonas aeruginosa [1]; Stamm 511030, substance alone): 128 µg/mL

SMILES: CCC[C@H](N)C(=O)NCP(=O)(O)O [1-(L-Norvalylamino)-methylphosphonsäure]
- MIC (Proteus vulgaris; [17]): 45.2 µg/mL (≈ 215 µM)
- MIC (Serratia marcescens; [18]): 4 µg/mL (≈ 19 µM)
- MIC (Pseudomonas aeruginosa [2]; [19]): > 128 µg/mL

SMILES: N[C@H](CCOc1ccc(/C(=N/O)C(=O)N[C@H]2CN([C@@H](C(=O)O)c3ccc(O)cc3)C2=O)cc1)C(=O)O [Nocardicin A]
- ED50 (Ps. aeruginosa; Ps. aeruginosa 143724, s.c. 3 x (1, 3, 5 h after i.p. infection), substance alone, read-out: CD50 (the source's name)): > 50 mg/kg
- ED50 (Ps. aeruginosa; Ps. aeruginosa 143811, s.c. 3 x (1, 3, 5 h after i.p. infection), substance alone, read-out: CD50 (the source's name)): > 50 mg/kg
- ED50 (Ps. aeruginosa; Ps. aeruginosa BA, s.c. 3 x (1, 3, 5 h after i.p. infection), substance alone, read-out: CD50 (the source's name)): 43 mg/kg
- ED50 (Ps. aeruginosa; Ps. aeruginosa M 7801, s.c. 3 x (1, 3, 5 h after i.p. infection), substance alone, read-out: CD50 (the source's name)): > 50 mg/kg
- MIC (P. mirabilis; [3]): 8 µg/mL (≈ 16 µM)
- MIC (P. mirabilis; [4]): 8 µg/mL (≈ 16 µM)
- MIC (P. mirabilis; [5]): 4 µg/mL (≈ 7.99 µM)
- MIC (P. mirabilis; [6]): 32 µg/mL (≈ 63.9 µM)
- MIC (Proteus vulgaris; [7]): 4 µg/mL (≈ 7.99 µM)
- MIC (Proteus vulgaris; [8]): 32 µg/mL (≈ 63.9 µM)
- MIC (Proteus vulgaris; [17]): 64 µg/mL (≈ 128 µM)
- MIC (P. morganii): 8 µg/mL (≈ 16 µM)
- MIC (Serratia marcescens; [9]): 8 µg/mL (≈ 16 µM)
- MIC (Serratia marcescens; [10]): 11.3 µg/mL (≈ 22.6 µM)
- MIC (Serratia marcescens; [11]): 11.3 µg/mL (≈ 22.6 µM)
- MIC (Serratia marcescens; [12]): 8 µg/mL (≈ 16 µM)
- MIC (Serratia marcescens; [13]): 16 µg/mL (≈ 32 µM)
- MIC (Serratia marcescens; [18]): 16 µg/mL (≈ 32 µM)
- MIC (Pseudomonas aeruginosa [2]; [14]): 16 µg/mL (≈ 32 µM)
- MIC (Pseudomonas aeruginosa [2]; [15]): 32 µg/mL (≈ 63.9 µM)
- MIC (Pseudomonas aeruginosa [2]; Stamm 511004, substance alone): 32 µg/mL (≈ 63.9 µM)
- MIC (Pseudomonas aeruginosa [2]; Stamm 511005, substance alone): 4 µg/mL (≈ 7.99 µM)
- MIC (Pseudomonas aeruginosa [2]; Stamm 511007, substance alone): 16 µg/mL (≈ 32 µM)
- MIC (Pseudomonas aeruginosa [2]; Stamm 511012, substance alone): 32 µg/mL (≈ 63.9 µM)
- MIC (Pseudomonas aeruginosa [2]; Stamm 511015, substance alone): 16 µg/mL (≈ 32 µM)
- MIC (Pseudomonas aeruginosa [2]; Stamm 511016, substance alone): 64 µg/mL (≈ 128 µM)
- MIC (Pseudomonas aeruginosa [2]; Stamm 511019, substance alone): 64 µg/mL (≈ 128 µM)
- MIC (Pseudomonas aeruginosa [2]; Stamm 511026, substance alone): 181 µg/mL (≈ 362 µM)
- MIC (Pseudomonas aeruginosa [2]; Stamm 511027, substance alone): 8 µg/mL (≈ 16 µM)
- MIC (Pseudomonas aeruginosa [2]; Stamm 511028, substance alone): 16 µg/mL (≈ 32 µM)
- MIC (Pseudomonas aeruginosa [2]; Stamm 511029, substance alone): 256 µg/mL (≈ 512 µM)
- MIC (Pseudomonas aeruginosa [2]; Stamm 511030, substance alone): 16 µg/mL (≈ 32 µM)
- MIC (Pseudomonas aeruginosa [2]; Stamm 511032, substance alone): 32 µg/mL (≈ 63.9 µM)
- MIC (Pseudomonas aeruginosa [2]; Stamm 511033, substance alone): 32 µg/mL (≈ 63.9 µM)
- MIC (Pseudomonas aeruginosa [2]; Stamm 511036, substance alone): 16 µg/mL (≈ 32 µM)
- MIC (Pseudomonas aeruginosa [2]; Stamm 511038, substance alone): 256 µg/mL (≈ 512 µM)
- MIC (Pseudomonas aeruginosa [2]; Stamm 511041, substance alone): 32 µg/mL (≈ 63.9 µM)
- MIC (Pseudomonas aeruginosa [2]; [16]): > 256 µg/mL
- MIC (Pseudomonas aeruginosa [2]; [19]): 8 µg/mL (≈ 16 µM)
- MIC (P. rettgeri): 8 µg/mL (≈ 16 µM)
